Data set [1] relates to primary culture of rat hepatocytes. Kind of data set: Effect of sesquiterpenes on DOX toxicity in hepatocytes, MTT test. The conditions noted are these: 24 h; for Effect on DOX toxicity in hepatocytes at 0.5 µM DOX: 0.5 µM DOX + 12.5 µg/mL sesquiterpene; for Effect on DOX toxicity in hepatocytes at other DOX concentrations: DOX 0.25, 1, 2 µM + sesquiterpene. Background: Formazan colour is commonly taken as a measure of viable cells.
Protocol: (§2) The toxicity of DOX alone as well as combinations of DOX and sesquiterpene was tested in primary culture of rat hepatocytes. […] The number of viable cells was measured after 24 h exposition of cells to various concentrations of the tested compounds.
Data presented as percentage of control cells (=100%) represent the mean ± S.D. from 2 independent experiments with 6 parallels in each (↑ significant increase; ↓ significant decrease).
Pure commercially available sesquiterpenes and DOX were pre-dissolved in DMSO or in pure ethanol. The concentration of organic solvent in medium was 0.1%. The cells were exposed to various concentrations of the tested compounds in culture medium. The cells cultured in medium with pure DMSO or ethanol without tested compounds were used as control samples. DMSO (10%) served as a positive control in both the primary culture of hepatocytes and of CaCo-2 cells. […] The viability of the hepatocytes was tested using a MTT assay after 24 h expositions.
(§3) The mitochondria of living cells are able to reduce yellow MTT (3-(4,5-dimethylthiazol-2-yl)-2,5-diphenyltetrazolium bromide) to purple formazan. The cells were cultured in 96-well plates. After 24 h exposure, 25 µL of MTT solution (3 mg of MTT in 1 mL of PBS) were added to each well. The plates were incubated for an additional 2 h at 37 °C, at which time the medium was removed and the formed formazan was dissolved in 50 µL of 0.08 M HCl in isopropanol by 30 min shaking. The absorbance in each well was read at 570 and 690 nm using a spectrophotometer (Tecan Infinite M200).

For data set [2], the system named is CaCo-2 cells. Kind of data set: Combination of DOX and sesquiterpenes in CaCo-2 cells, NRU test, combination indexes (CalcuSyn). It is filed as cell-based, human. The conditions noted are these: CaCo-2, 72 h; for Combined effect with DOX (combination index, CI): NRU, CalcuSyn. How it is done: Concentrations of DOX and sesquiterpenes were selected according to the Chou-Talalay Method. After 72-h incubation, the number of viable cells was assayed using NRU. […] When DOX was used in combinations with individual sesquiterpenes, a significant increase of DOX efficacy was observed.
With the aim of evaluating and quantifying the combined effect of DOX and sesquiterpenes, combination indexes were calculated using CalcuSyn (ver. 1.1, Biosoft, Cambridge, UK); the plot of combination indexes (CI) vs. fractions of dead cells (Fa) is presented in Figure 5. […] It is important to emphasize that synergy of anticancer agents at high effect levels (Fa > 0.8) is more relevant to therapy than at low levels.
Figure 5 Combination indexes (CI) of DOX and sesquiterpenes in dependence on fraction of affected CaCo-2 cells (Fa). Incubations lasted for 72 h. Data were calculated using CalcuSyn software.
The cells were cultured in 96‑well plates. After 72 h exposure, the medium was removed and 100 µL of neutral red-containing medium was added into each well, at which time the plates were incubated for an additional 3 h at 37 °C. The cells were washed with 100 µL of PBS, then fixed in a solution of 0.5% formaldehyde/1% calcium chloride for 15 min. The neutral red dye was extracted from the viable cells with a solvent (50% ethanol/1% acetic acid) by shaking for 30 min at room temperature. The absorbance of solubilized dye was measured using a spectrophotometer (Infinite M200, Tecan, Männedorf, Switzerland) at 540 nm. Each sample was assayed in 6 parallels and 3 independent experiments were performed. The viabilities of the treated cells were expressed as a percentage of untreated controls (100%). The effect of sesquiterpenes on DOX efficacy was evaluated using CalcuSyn software.

The test system of data set [3] is CaCo-2 cells. In words: Antiproliferative effect in CaCo-2 cells, neutral red uptake (NRU) test. It is filed as cell-based, human. The note with it: for Inhibition of cancer cell proliferation: 0–50 µg/mL, 72 h; for IC50: Homo sapiens.
Protocol: Firstly, the antiproliferative effect of five sesquiterpenes CAR, CAO, HUM, NER, VAL was tested in CaCo-2 cancer cells. The cells were incubated with individual sesquiterpenes in concentrations 0–50 µg/mL for 72 h. After incubation, a number of viable cells was assayed using a NRU test and IC50 values were calculated.
CaCo-2 cancer cells were incubated with DOX alone (concentrations 0.25, 0.5, 1, 2, 4 µM), with individual sesquiterpenes alone (concentrations 6.125, 12.5, 25, 50 µg/mL) and with DOX (concentrations 0.25, 0.5, 1, 2 µM) in combinations with each sesquiterpene (concentrations 6.125, 12.5, 25, 50 µg/mL). […] After 72-h incubation, the number of viable cells was assayed using NRU.
The human epithelial colorectal adenocarcinoma line CaCo-2 was purchased from ATCC (supplier for Czech Republic: LGC Standards, Lomianki, Poland). […] The CaCo-2 cells were cultured in MEM supplemented with 10% heat-inactivated FBS, 1% non-essential amino acid, 1.5% L-glutamine solution and 0.5% penicillin/streptomycin. Cells were grown in T-75 cm^2 culture flasks in a humidified atmosphere containing 5% CO2 at 37 °C.
Pure commercially available sesquiterpenes and DOX were pre-dissolved in DMSO or in pure ethanol. The concentration of organic solvent in medium was 0.1%. The cells were exposed to various concentrations of the tested compounds in culture medium. The cells cultured in medium with pure DMSO or ethanol without tested compounds were used as control samples. […] The number of viable CaCo-2 cells was assayed using the neutral red uptake test after 72 h expositions.
Data are presented as means ± S.D. of a given number of experiments. Statistical significance (evaluated using a one-way ANOVA) was acceptable to a level of p < 0.05. The concentration inducing a 50% decrease of cell viability as compared to control (IC50) was calculated using GraphPad Prism 6.0 nonlinear regression.
In data set [4] the test system is CaCo-2 cells. In words: Intracellular ROS formation (H2DCF-DA) in CaCo-2 cells. The data set is classed as cell-based, human. The note with it: for Effect on ROS formation, sesquiterpene alone: 10 µg/mL; for Effect of DOX + sesquiterpene on ROS formation compared with DOX alone: DOX 1 µM + sesquiterpene 10 µg/mL. From the text:
(§1) To assess ROS generation in CaCo-2 cells or […], a measurement of 2′,7′-dichlorodihydrofluorescein-diacetate (H2DCF-DA) oxidation was used. This non-fluorescent reagent diffuses passively through the plasma membrane into the cell, where the acetate groups are cleaved by intracellular esterases. The compound can then be oxidized by ROS formed within the cell (particularly by hydroxyl radicals, •OH) to form fluorescent dichlorofluorescein (DCF), while the fluorescence intensity is proportional to the ROS level. CaCo-2 cells or hepatocytes (seeded in a 96-well plate at a density of 2500 cells/well) were washed by PBS buffer and loaded with 100 µL of the tested substances (individual sesquiterpenes, DOX alone, DOX + sesquiterpene combinations pre-dissolved in DMSO) in PBS buffer. After 12-h incubation, 100 µL of 5 μM H2DCF-DA were added. After another incubation of 30-min, fluorescence intensity was measured for 50 min at 37 °C using a microplate reader Tecan Infinite M200 at λex = 485 nm and λem = 525 nm. Cells treated with PBS only with pure DMSO (as a solvent) were used as control samples. The 3% H2O2 solution was used as a positive control.

Data set [5] concerns primary culture of rat hepatocytes. In words: Viability of primary culture of rat hepatocytes, MTT test. The note with it: 24 h; for Hepatotoxicity / viability of hepatocytes: sesquiterpene alone 0–50 µg/mL.
Protocol: as §2
The rat hepatocytes were obtained from rat liver by the two-step collagenase method. Briefly, the liver was perfused with salt solution (0.14 M NaCl, 5.0 mM KCl, 0.8 mM MgSO4) in Na^+/K^+ phosphate buffer (0.2 mM, pH 7.4) containing a calcium binding component (0.4 mM EGTA). […] The collagenase perfusion was proceeded for 5–6 min. After perfusion the liver was transferred to a medium containing BSA and the hepatocytes were released. The obtained suspension was filtered through a nylon mesh and centrifuged at 40× g for 5 min at 4 °C. The pellet was re-suspended in chilled buffer and the washing procedure was twice repeated. Finally, three million viable (75%–85%) cells in 3 mL of culture medium ISOM (1:1 mixture of Ham F12 and Williams’ E) were placed into 96-well plastic dishes. The fetal calf serum was added in the culture medium (5%). Cultures were maintained without the tested compounds for 4 h at 37 °C in a humid atmosphere of air and 5% CO2.
Pure commercially available sesquiterpenes and DOX were pre-dissolved in DMSO or in pure ethanol. The concentration of organic solvent in medium was 0.1%. The cells were exposed to various concentrations of the tested compounds in culture medium. The cells cultured in medium with pure DMSO or ethanol without tested compounds were used as control samples. […] The viability of the hepatocytes was tested using a MTT assay after 24 h expositions.
as §3
Data set [6] has as its system CaCo-2 cells. Kind of data set: DOX accumulation in CaCo-2 cells (UHPLC). It is filed as cell-based, human. The conditions noted are these: 3 h; for Effect on intracellular DOX concentration: DOX 6 µM + sesquiterpene 10 or 50 µg/mL. The protocol: The effect of sesquiterpenes on DOX accumulation in cells was also studied. Concentrations of DOX within cells after a 3-h incubation of CaCo-2 cells, hepatocytes with DOX alone and DOX + sesquiterpene combinations were analyzed. […] On the other hand, the addition of all sesquiterpenes to DOX led to a concentration-dependent increase of DOX concentration within CaCo-2 cells. […] CAO (at concentration 50 µg/mL) was able to enhance the intracellular DOX concentration in CaCo-2 cells at a rate of 3.6-times.
The suspension of CaCo-2 cells or hepatocytes (600 µL; density 5000 cells/100 µL) per well was set to a 12-well plate. After 48 h, 600 µL of solutions in medium of the tested substances were added. The cells were treated with DOX (6 µM) alone, or in combination with individual sesquiterpenes (10 or 50 µg/mL) for 3 h. At the end of the experiment, the medium was removed and cells were washed with 500 µL of PBS. One hundred µL of lysing buffer (25 mM Tris, 150 mM NaCl, 1% Triton, pH 7.4) were then added, at which time the cells were lysed for 15 min, then mixed with 300 µL of ice-cold methanol and centrifuged (10,000× g, 10 min, 4 °C). The supernatant was filtered through a 0.22 µm filter and the filtrate was used for analysis.
DOX was detected on an Agilent 1290 Series UHPLC chromatographic system (Agilent, Santa Clara, CA, USA) equipped with a Zorbax C18 Eclipse Plus (2.1 × 50 mm, 1.8 μm) column with a 1290 Infinity inline filter (Agilent). The HPLC method used by was adapted to a UHPLC system: Isocratic elution of 1.0 mL/min by 0.1% formic acid in water and acetonitrile in ratio 76:24; 30 °C thermostated column compartment; fluorescence detection at λex = 480 nm and λem = 560 nm. Chemical standards were purchased from Toronto Research Chemicals (Toronto, ON, Canada).

For another data set, the system named is hepatocytes. In words: Intracellular ROS formation (H2DCF-DA) in hepatocytes. It is filed as cell-based, rat. The conditions noted are these: DOX 1 µM.
Text: as §1

The mark [7] stands for this setting: CaCo-2 cells, 72 h incubation, NRU test, concentrations 0–50 µg/mL, read-out: IC50.

“Also recorded” adds a separate entry of the source. Where two headings read alike, the source gives them in different places. Where only a bound is given, the exact number is not on record here.

A word on the IC50: it is the concentration at which inhibition is half-maximal. In the case of `C=CC(C)(O)CC/C=C(\C)CCC=C(C)C` (racemic) [NER, (±)-trans-nerolidol], in data set [1], the “Effect on DOX toxicity in hepatocytes at 0.5 µM DOX” value was “increased DOX toxicity” and the “Effect on DOX toxicity in hepatocytes at other DOX concentrations” value is “did not influence DOX toxicity”. Further, the “Combined effect with DOX (combination index, CI)” value in the data set with CaCo-2 cells [2] is listed as “significant synergistic effects with DOX”. Moreover, in the data set with CaCo-2 cells [2] (lower fraction of affected cells), the “Combined effect with DOX at lower Fa” value is “most synergistic effect on DOX”. In addition, in the data set with CaCo-2 cells [3] (CaCo-2 cells, NRU), the “Inhibition of cancer cell proliferation” value was “most effective; also recorded: inhibited the proliferation of CaCo-2 cancer cells”. In addition, the IC50 in the data set on CaCo-2 cells [3] (setting [7]) was 28.7 ± 2.5 µg/mL. Also, in the data set with CaCo-2 cells [4], the “Effect on ROS formation, sesquiterpene alone” value (“Effect on ROS formation” below) is reported as “strong antioxidant” and the “Effect of DOX + sesquiterpene on ROS formation compared with DOX alone” value (shortened to “Effect … compared with DOX alone”) is “significant antioxidant effect”. Further, the “Hepatotoxicity / viability of hepatocytes” value (from here on “Hepatotoxicity / viability”) in data set [5] is given as “none of tested sesquiterpenes showed hepatotoxicity”. Also, the “Effect on intracellular DOX concentration” value in the data set on CaCo-2 cells [6] is recorded as “more pronounced enhancement of DOX accumulation”.

Consider `COc1cccc2c1C(=O)c1c(O)c3c(c(O)c1C2=O)C[C@@](O)(C(=O)CO)C[C@@H]3O[C@H]1C[C@H](N)[C@H](O)[C@H](C)O1` [DOX, doxorubicin, reference compound], for which the “Effect of DOX alone on ROS production” value with hepatocytes is “did not have a significant effect”; with CaCo-2 cells [4] (DOX 1 µM), “increased ROS production”. Further, the IC50 with CaCo-2 cells [3] (CaCo-2 cells, 72-h incubation, NRU, DOX alone, read-out: IC50 (antiproliferative effect of DOX)) was found to be 1900 nM. For the same molecule, in data set [5] (DOX 0.25–2 µM), the “Hepatotoxicity of DOX alone” value is “marked hepatotoxicity”.

Take `C=C1CC[C@H]2O[C@]2(C)CC[C@@H]2[C@@H]1CC2(C)C` [CAO, β-caryophyllene oxide]: the “Effect on DOX toxicity in hepatocytes at DOX 0.25 and 2 µM” value in data set [1] (DOX 0.25 and 2 µM + sesquiterpene) is listed as “significantly ameliorate DOX toxicity”. Besides, the “Combined effect with DOX (combination index, CI)” value in the data set on CaCo-2 cells [2] is reported as “significant synergistic effects with DOX”. The “Combined effect with DOX at Fa > 0.8” value in the data set with CaCo-2 cells [2] (higher number of cells affected (Fa > 0.8)) is “strongest”. In the data set with CaCo-2 cells [3] (CaCo-2 cells, NRU), the “Inhibition of cancer cell proliferation” value is on record as “inhibited the proliferation of CaCo-2 cancer cells”. For the same molecule, in the data set with CaCo-2 cells [3] (setting [7]), the IC50 is > 50 µg/mL. In the data set with CaCo-2 cells [4], the “Effect on ROS formation” value was “pro-oxidative effects” and the “Effect … compared with DOX alone” value was “increase the pro-oxidative effect of DOX”. Further, in data set [5], the “Hepatotoxicity / viability” value is “none of tested sesquiterpenes showed hepatotoxicity; also recorded: mildly increased the viability of hepatocytes in a concentration-dependent manner”. Also, the “Effect on intracellular DOX concentration” value with CaCo-2 cells [6] is “more pronounced enhancement of DOX accumulation”. Moreover, the “Enhancement of intracellular DOX concentration” value in the data set with CaCo-2 cells [6] (sesquiterpene 50 µg/mL, DOX 6 µM, vs DOX alone) was 3.6 times.

On to `C/C1=C\CC/C(C)=C/CC(C)(C)/C=C/C1` [HUM, α-humulene], for which the “Effect on DOX toxicity in hepatocytes” value in data set [1] (DOX 0.25–2 µM + sesquiterpene 6.125–50 µg/mL) is reported as “did not affect DOX toxicity”. The “Combined effect with DOX (combination index, CI)” value in the data set with CaCo-2 cells [2] was “acted rather additively”. Moreover, the “Inhibition of cancer cell proliferation” value in the data set on CaCo-2 cells [3] (CaCo-2 cells, NRU) is given as “most effective; also recorded: inhibited the proliferation of CaCo-2 cancer cells”. In the data set on CaCo-2 cells [3] (setting [7]), the IC50 worked out at 24.4 ± 2.4 µg/mL. In the data set with CaCo-2 cells [4], the “Effect on ROS formation” value is “did not influence ROS formation”. In addition, in data set [5], the “Hepatotoxicity / viability” value is “none of tested sesquiterpenes showed hepatotoxicity”.

As for `C=C(C)[C@@H]1CCC2=CCC[C@@H](C)[C@]2(C)C1` [VAL, valencene], in data set [1], the “Effect on DOX toxicity in hepatocytes at 0.5 µM DOX” value is recorded as “increased DOX toxicity” and the “Effect on DOX toxicity in hepatocytes at other DOX concentrations” value is “did not influence DOX toxicity”. For the same molecule, in the data set with CaCo-2 cells [2], the “Combined effect with DOX (combination index, CI)” value is on record as “significant synergistic effects with DOX”. Further, the “Inhibition of cancer cell proliferation” value in the data set with CaCo-2 cells [3] (CaCo-2 cells, NRU) is “inhibited the proliferation of CaCo-2 cancer cells”. In the data set on CaCo-2 cells [3] (Caco-2, 72 h), this molecule showed an IC50 of 38.1 ± 2.4 µg/mL. Besides, in the data set with CaCo-2 cells [4], the “Effect on ROS formation” value is listed as “pro-oxidative effects” and the “Effect … compared with DOX alone” value is given as “increase the pro-oxidative effect of DOX”. Besides, in data set [5], the “Hepatotoxicity / viability” value is reported as “none of tested sesquiterpenes showed hepatotoxicity”.

The record behind these values is paper PMC6331978 (Molecules, 2015).
